The values below come from patent US6541463B1, “Inhibitors of type 5 and type 3 17β-hydroxysteroid dehydrogenase and methods for their use” (Endorecherche, Inc., priority 1998, dated 2003).

Each structure is given as a SMILES string.

One assay deals with T1, estrogen receptor (Rattus norvegicus, UniProt P06211).
T1 construct: from tissue; host or cells: uterine cytosol of gonadectomized female Sprague-Dawley rats
T1 sequence (P06211 1-600): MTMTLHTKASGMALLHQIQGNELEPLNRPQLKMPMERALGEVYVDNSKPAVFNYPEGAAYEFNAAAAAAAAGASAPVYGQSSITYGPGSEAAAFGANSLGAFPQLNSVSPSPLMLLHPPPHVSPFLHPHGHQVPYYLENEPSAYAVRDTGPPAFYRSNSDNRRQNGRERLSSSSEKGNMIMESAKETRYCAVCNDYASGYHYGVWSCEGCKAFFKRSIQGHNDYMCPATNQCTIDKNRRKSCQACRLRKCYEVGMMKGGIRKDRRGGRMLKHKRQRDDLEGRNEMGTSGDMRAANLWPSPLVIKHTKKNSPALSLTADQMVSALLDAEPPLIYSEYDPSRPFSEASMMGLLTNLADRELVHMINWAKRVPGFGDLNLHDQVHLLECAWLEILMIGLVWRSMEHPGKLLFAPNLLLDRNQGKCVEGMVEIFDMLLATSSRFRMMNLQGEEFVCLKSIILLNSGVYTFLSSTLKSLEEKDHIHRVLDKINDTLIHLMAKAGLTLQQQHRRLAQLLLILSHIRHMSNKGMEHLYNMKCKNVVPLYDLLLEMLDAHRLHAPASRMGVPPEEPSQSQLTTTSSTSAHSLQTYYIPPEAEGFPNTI
Description: Estrogen receptor (ER) assay: inhibition of [3H]E2 binding, uterine cytosol. As to conditions: Table 4′. As for the experimental part:
Female Sprague-Dawley rats (Crl: CD(SD)Br) weighing 200-300 g were obtained from Charles-River Inc. (St-Constant, Québec, Canada). The rats were gonadectomized under general anesthesia (Isoflurane) and killed by cervical dislocation 24 hours later. The uteri were rapidly removed, dissected free from adhering tissue and frozen on dry-ice. Uteri were kept at −80° C. until assay. All subsequent steps were performed at 0-4° C. Uteri were homogenized in 10 vol (wt/vol) of buffer A (25 mM Tris-HCI, 1.5 mM EDTA disodium salt, 10 mM α-monothioglycerol, 10% glycerol, and 10 mM sodium molybdate, pH 7.4), using a Polytron PT-10 homogenizer (Brinkman Instruments, Canada) at a setting of 5 for three periods of 10 sec, with intervals of 10 sec for cooling. The homogenate was then centrifuged at 105,000×g for 60 min in a Beckman L5-65 ultracentrifuge (Fullerton, Calif.). The protein concentration of the cytosol fraction was measured according to the method of Bradford (Anal. Biochem. 72: 248-254, 1976), using bovine serum albumin as standard.
Estrogen binding was measured using the dextran-coated charcoal adsorption technique as described previously (Asselin et al., Endocrinology, 101: 666-671, 1977; Asselin and Labrie, J. Steroid Biochem., 9: 1079-1082, 1978). Briefly, [^3H]E2 solubilized in ethanol were diluted into buffer A. Aliquots of uterine cytosol preparation (0.1 ml) were incubated with 5 nM [^3H]E2 (˜200,000 cpm, 0.1 ml) in the presence or absence of the indicated concentrations of unlabeled compounds (0.1 ml, prepared in buffer A containing 10% ethanol) for 3 h at room temperature. Unbound steroids were then separated by incubation for 15 min at 0-4° C. with 0.3 ml 0.5% Norit-A and 0.05% Dextran T-70 in buffer B (1.5 mM EDTA disodium salt, 10 mM monothioglycerol, and 10 mM Tris-HCI, pH 7.4) and centrifuged at 3,000×g for 15 min. Aliquots of the supernatant (0.3 ml) were removed for radioactivity measurement.

Assay [1] has as its system Shionogi mouse mammary carcinoma cells. As to the kind of experiment: Androgenic activity: stimulation of proliferation of Shionogi cells. Type of assay: cell-based. As to conditions: Table 4′. The gist of the method: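 Values are the percent stimulation of cell number, measured by Coulter counter, after 10–12 days of exposure to 10^−7 M or 10^−6 M compound. Androgen-sensitive Shionogi cells were seeded at 20 000 cells/well in triplicate in dextran-charcoal-treated FCS medium, refreshed every 3–4 days.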

Take `CCOc1ccc2c(c1)CCC1C2CC[C@@]2(C)C1CC[C@@]21CCC(C)(C)C(=O)O1` (stereo partly drawn) [EM-1369, 3-Ethoxy-1,3,5(10)-estratrien-17(R)-spiro-2′-(5′,5′-dimethyl-6′-oxo)-tetrahydropyran]: on estrogen receptor, the “% Inhibition Estrogen Receptor E^−6” value came to 0% and the “% Inhibition Estrogen Receptor E^−8” value was 2%. In addition, in assay [1], the “Androgenic Activity Shionogi, Basal E^−6” value worked out at 0% and the “Androgenic Activity Shionogi, Basal E^−7” value turned out to be 0%.
As to `COc1ccc2c(c1)CCC1C2CCC2(C)C1CCC21CCC(C)(C)C(=O)O1` (centres unmarked) [EM-1370], on estrogen receptor, the “% Inhibition Estrogen Receptor E^−6” value was 2% and the “% Inhibition Estrogen Receptor E^−8” value was 0%. Further, in assay [1], the “Androgenic Activity Shionogi, Basal E^−6” value is −11% and the “Androgenic Activity Shionogi, Basal E^−7” value turned out to be 12%.
With `COCCOc1cc2c(cc1Cl)C1CCC3(C)C(CCC34CCC(C)(C)C(=O)O4)C1CC2` (centres unmarked) [EM-1371-CS], at estrogen receptor, the “% Inhibition Estrogen Receptor E^−6” value was 1% and the “% Inhibition Estrogen Receptor E^−8” value came out at 2%. Moreover, in assay [1], the “Androgenic Activity Shionogi, Basal E^−6” value came to 92% and the “Androgenic Activity Shionogi, Basal E^−7” value is on record as 58%.
`CC1(C)CC[C@@]2(CC[C@H]3[C@@H]4CCc5c(cc(Br)c(O)c5Br)[C@H]4CC[C@@]32C)OC1=O` [EM-1382-CS]: on estrogen receptor, the “% Inhibition Estrogen Receptor E^−6” value is listed as 3% and the “% Inhibition Estrogen Receptor E^−8” value was found to be 0%. Besides, in assay [1], the “Androgenic Activity Shionogi, Basal E^−6” value amounted to 0% and the “Androgenic Activity Shionogi, Basal E^−7” value stood at 0%.
As to `COc1c(Br)cc2c(c1Br)CCC1C2CCC2(C)C1CCC21CCC(C)(C)C(=O)O1` (centres unmarked) [EM-1385-CS], on estrogen receptor, the “% Inhibition Estrogen Receptor E^−6” value is given as 4% and the “% Inhibition Estrogen Receptor E^−8” value stood at 2%. Further, in assay [1], the “Androgenic Activity Shionogi, Basal E^−6” value is −28% and the “Androgenic Activity Shionogi, Basal E^−7” value is −11%.
Regarding `COc1ccc2c(c1)C(=O)CC1C3CCC4(CCC(C)(C)C(=O)O4)C3(C)CCC21O` (centres unmarked) [EM-1386], at estrogen receptor, the “% Inhibition Estrogen Receptor E^−6” value worked out at 0% and the “% Inhibition Estrogen Receptor E^−8” value was found to be 3%. Also, in assay [1], the “Androgenic Activity Shionogi, Basal E^−6” value is listed as −17% and the “Androgenic Activity Shionogi, Basal E^−7” value was determined as 5%.
On to `CN(C)CCOc1ccc2c(c1)CCC1C2CCC2(C)C1CCC21CCC(C)(C)C(=O)O1` (centres unmarked) [EM-1389-CS], for which, at estrogen receptor, the “% Inhibition Estrogen Receptor E^−6” value is on record as 0% and the “% Inhibition Estrogen Receptor E^−8” value turned out to be 0%. Moreover, in assay [1], the “Androgenic Activity Shionogi, Basal E^−6” value is −41% and the “Androgenic Activity Shionogi, Basal E^−7” value is given as 0%.
Turning to `CC1(C)CCC2(CCC3C4CCc5cc(OCCN6CCCCC6)ccc5C4CCC32C)OC1=O` [EM-1390-CS, 3-(N-piperidyl-ethyl)-1,3,5(10)-estratrien-17(R)-spiro-2′-(5′,5′-dimethyl-6′-oxo)-tetrahydropyran], on estrogen receptor, the “% Inhibition Estrogen Receptor E^−6” value turned out to be 0% and the “% Inhibition Estrogen Receptor E^−8” value turned out to be 0%. Also, in assay [1], the “Androgenic Activity Shionogi, Basal E^−6” value is listed as −43% and the “Androgenic Activity Shionogi, Basal E^−7” value was −18%.
Take `CC1(C)CCC2(CCC3C4CCc5c(cc(Cl)c(O)c5Cl)C4CCC32C)OC1=O` (centres unmarked) [EM-1391-CS]: at estrogen receptor, the “% Inhibition Estrogen Receptor E^−6” value stood at 0% and the “% Inhibition Estrogen Receptor E^−8” value stood at 0%. Besides, in assay [1], the “Androgenic Activity Shionogi, Basal E^−6” value is −13% and the “Androgenic Activity Shionogi, Basal E^−7” value came to 0%.
Consider `CC1(C)CCC2(CCC3C4CCc5c(cc(Cl)c(OS(C)(=O)=O)c5Cl)C4CCC32C)OC1=O` (centres unmarked) [EM-1392-CS], for which, on estrogen receptor, the “% Inhibition Estrogen Receptor E^−6” value was determined as 0% and the “% Inhibition Estrogen Receptor E^−8” value came out at 0%. For the same compound, in assay [1], the “Androgenic Activity Shionogi, Basal E^−6” value is recorded as −35% and the “Androgenic Activity Shionogi, Basal E^−7” value turned out to be 7%.
As for `COc1ccc2c(c1)C(=O)CC1C2CC[C@@]2(C)C1CC[C@@]21CCC(C)(C)C(=O)O1` (some centres unmarked) [EM-1394], at estrogen receptor, the “% Inhibition Estrogen Receptor E^−6” value stood at 8% and the “% Inhibition Estrogen Receptor E^−8” value is 4%. For the same compound, in assay [1], the “Androgenic Activity Shionogi, Basal E^−6” value was −12% and the “Androgenic Activity Shionogi, Basal E^−7” value is on record as 4%.
Turning to `COCCOc1cc2c(cc1C#N)C1CC[C@@]3(C)C(CC[C@@]34CCC(C)(C)C(=O)O4)C1CC2` (some centres unmarked) [EM-1396], at estrogen receptor, the “% Inhibition Estrogen Receptor E^−6” value was found to be 2% and the “% Inhibition Estrogen Receptor E^−8” value amounted to 3%. In assay [1], the “Androgenic Activity Shionogi, Basal E^−6” value is −15% and the “Androgenic Activity Shionogi, Basal E^−7” value was determined as 0%.
Regarding `CC1(C)CC[C@@]2(CCC3C4CCc5cc(C(=O)O)ccc5C4CC[C@@]32C)OC1=O` (stereo partly drawn) [EM-1401, 3-Carboxy-1,3,5(10)-estratrien-17(R)-spiro-2′-(5′,5′-dimethyl-6′-oxo)tetrahydropyran], on estrogen receptor, the “% Inhibition Estrogen Receptor E^−6” value is listed as 2% and the “% Inhibition Estrogen Receptor E^−8” value was 5%. Besides, in assay [1], the “Androgenic Activity Shionogi, Basal E^−6” value was 0% and the “Androgenic Activity Shionogi, Basal E^−7” value turned out to be 2%.
As to `COCCOc1cc2c(cc1C(=O)OC)C1CC[C@@]3(C)C(CC[C@@]34CCC(C)(C)C(=O)O4)C1CC2` (stereo partly drawn) [EM-1402-CS, 2-Carbomethoxy-3-(2″-methoxyethyloxy)-1,3,5(10)-estratrien 17(R)-spiro-2′-(5′,5′-dimethyl-6′-oxo)tetrahydropyran], at estrogen receptor, the “% Inhibition Estrogen Receptor E^−6” value worked out at 0% and the “% Inhibition Estrogen Receptor E^−8” value was found to be 1%. Further, in assay [1], the “Androgenic Activity Shionogi, Basal E^−6” value is given as −9% and the “Androgenic Activity Shionogi, Basal E^−7” value is given as 0%.
Take `CN(C)C(=O)c1ccc2c(c1)CCC1C2CCC2(C)C1CCC21CCC(C)(C)C(=O)O1` (centres unmarked) [EM-1403]: on estrogen receptor, the “% Inhibition Estrogen Receptor E^−6” value amounted to 0% and the “% Inhibition Estrogen Receptor E^−8” value is listed as 0%. In assay [1], the “Androgenic Activity Shionogi, Basal E^−6” value is 0% and the “Androgenic Activity Shionogi, Basal E^−7” value was 19%.
With `CC1(C)CC[C@@]2(CCC3C4CCc5cc(C(N)=O)ccc5C4CCC32C)OC1=O` (some centres unmarked) [EM-1404], on estrogen receptor, the “% Inhibition Estrogen Receptor E^−6” value is 0% and the “% Inhibition Estrogen Receptor E^−8” value was determined as 0%. In addition, in assay [1], the “Androgenic Activity Shionogi, Basal E^−6” value stood at 0% and the “Androgenic Activity Shionogi, Basal E^−7” value was found to be 0%.
As to `COCCOc1cc2c(cc1C(=O)O)C1CCC3(C)C(CCC34CCC(C)(C)C(=O)O4)C1CC2` [EM-1405, 2-Carboxy-3-(2″-methoxyethyloxy)-1,3,5(10)-estratrien-17(R)-spiro-2′-(5′,5′-dimethyl-6′-oxo)tetrahydropyran], at estrogen receptor, the “% Inhibition Estrogen Receptor E^−6” value is recorded as 0% and the “% Inhibition Estrogen Receptor E^−8” value was 0%. Also, in assay [1], the “Androgenic Activity Shionogi, Basal E^−6” value is 0% and the “Androgenic Activity Shionogi, Basal E^−7” value was found to be 0%.
Turning to `CC1(C)CC[C@@]2(CCC3C4CCc5cc6oncc6cc5C4CC[C@@]32C)OC1=O` (stereo partly drawn) [EM-1407-CS, 1,3,5(10)-estratrien-(2,3-oximino)-17(R)-spiro-2′-(5′,5′-dimethyl-6′-oxo)tetrahydropyran], at estrogen receptor, the “% Inhibition Estrogen Receptor E^−6” value was 0% and the “% Inhibition Estrogen Receptor E^−8” value came to 2%. For the same compound, in assay [1], the “Androgenic Activity Shionogi, Basal E^−6” value is −23% and the “Androgenic Activity Shionogi, Basal E^−7” value is recorded as 0%.
Turning to `COCCOc1ccc2c(c1)C(=O)CC1C2CCC2(C)C1CCC21CCC(C)(C)C(=O)O1` (centres unmarked) [EM-1408-CS], at estrogen receptor, the “% Inhibition Estrogen Receptor E^−6” value is recorded as 6% and the “% Inhibition Estrogen Receptor E^−8” value was found to be 0%. In assay [1], the “Androgenic Activity Shionogi, Basal E^−6” value is listed as −12% and the “Androgenic Activity Shionogi, Basal E^−7” value is 0%.
Take `COc1cc2c(cc1C)C1CCC3(C)C(CCC34CCC(C)(C)C(=O)O4)C1CC2` (centres unmarked) [EM-1412-CS]: on estrogen receptor, the “% Inhibition Estrogen Receptor E^−6” value is given as 0% and the “% Inhibition Estrogen Receptor E^−8” value turned out to be 0%. Besides, in assay [1], the “Androgenic Activity Shionogi, Basal E^−6” value was −11% and the “Androgenic Activity Shionogi, Basal E^−7” value worked out at 0%.
